Test results published in patent publication US20250270246A1, “LINCOSAMIDES AND USES THEREOF” (President and Fellows of Harvard College, priority 2022, published 2025).
Where a name gives a salt, the structure may show the parent alone. Read-outs that look alike come from different tables or passages of the source.

Tests used:
[1] = rcm bond, Grubbs II (20 mol%)/benzoquinone, toluene
[2] = system: A. baumannii ATCC 19606 (HAV#010); assay: MIC by broth microdilution (CLSI); type: cell-based; conditions: Acinetobacter baumannii, ATCC19606, 24 h, HAV#010, ATCC 19606; CaMHB, 24 h incubation; read-out: MIC A. baumannii ATCC 19606
How it was run: (§1)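 CLSI broth microdilution in cation-adjusted Mueller-Hinton broth, inoculum 5×10^5 CFU/mL, compounds typically 64-0.06 μg/mL with 2.5% final DMSO. MIC is the lowest concentration preventing visible growth after 24 h. For P. aeruginosa, broth was pre-treated with Chelex 100 resin.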

[3] = system: E. coli ATCC 25922 (HAV#006); assay: MIC by broth microdilution (CLSI); type: cell-based; conditions: Escherichia coli, ATCC25922, 24 h, read-out: MIC E. coli ATCC 25922
How it was run: as §1

[4] = system: E. coli HAV#038, ΔTolC; assay: MIC by broth microdilution (CLSI); type: cell-based; conditions: Escherichia coli, 24 h, read-out: MIC E. coli HAV#038, ΔTolC
How it was run: as §1

[5] = system: E. coli HAV#040, LptD; assay: MIC by broth microdilution (CLSI); type: cell-based; conditions: Escherichia coli, 24 h, read-out: MIC E. coli HAV#040, LptD
How it was run: as §1

[6] = system: E. faecium HAV#318, VRE; clinical; assay: MIC by broth microdilution (CLSI); type: cell-based; conditions: Enterococcus faecium, CaMHB, 24 h incubation, read-out: MIC E. faecium HAV#318, VRE
How it was run: as §1

[7] = system: K. pneumoniae HAV#402, FQ-R; assay: MIC by broth microdilution (CLSI); type: cell-based; conditions: Klebsiella pneumoniae; FQ-R; CaMHB, 24 h incubation; read-out: MIC K. pneumoniae HAV#402, FQ-R
How it was run: as §1

[8] = system: S. aureus ATCC 29213 (HAV#001); assay: MIC by broth microdilution (CLSI); type: cell-based; conditions: Staphylococcus aureus, ATCC29213, 24 h, read-out: MIC S. aureus ATCC 29213
How it was run: as §1

[9] = system: S. aureus HAV#031, c-ermA; assay: MIC by broth microdilution (CLSI); type: cell-based; conditions: Staphylococcus aureus; c-ermA; CaMHB, 24 h incubation; read-out: MIC S. aureus HAV#031, c-ermA
How it was run: as §1

[10] = system: S. aureus HAV#216, cfr; assay: MIC by broth microdilution (CLSI); type: cell-based; conditions: Staphylococcus aureus; cfr; CaMHB, 24 h incubation; read-out: MIC S. aureus HAV#216, cfr
How it was run: as §1

[11] = system: E. faecalis ATCC 29212 (HAV#005); assay: MIC by broth microdilution (CLSI); type: cell-based; conditions: Enterococcus faecalis, ATCC29212, 24 h, read-out: MIC E. faecalis ATCC 29212
How it was run: as §1

[12] = system: E. coli Clinical (armA); assay: MIC by broth microdilution (CLSI); type: cell-based; conditions: Escherichia coli, 24 h, read-out: MIC E. coli Clinical (armA)
How it was run: as §1

[13] = system: E. coli lptD mutant; assay: MIC by broth microdilution (CLSI); type: cell-based; conditions: Escherichia coli, 24 h, read-out: MIC E. coli lptD mutant, lptD mutant / ΔlptD mutant; CaMHB, 24 h incubation
How it was run: as §1

[14] = system: E. coli ΔtolC; assay: MIC by broth microdilution (CLSI); type: cell-based; conditions: Escherichia coli, 24 h, read-out: MIC E. coli ΔtolC, ΔtolC; CaMHB, 24 h incubation
How it was run: as §1

[15] = system: K. pneumoniae JMI-991193; assay: MIC by broth microdilution (CLSI); type: cell-based; conditions: Klebsiella pneumoniae, JMI991193, 24 h, read-out: MIC K. pneumoniae JMI-991193
How it was run: as §1

[16] = system: S. aureus Clinical (cfr); assay: MIC by broth microdilution (CLSI); type: cell-based; conditions: Staphylococcus aureus, 24 h, read-out: MIC S. aureus Clinical (cfr)
How it was run: as §1

[17] = system: S. aureus MMX 3035; assay: MIC by broth microdilution (CLSI); type: cell-based; conditions: Staphylococcus aureus, MMX3035, 24 h, read-out: MIC S. aureus MMX 3035
How it was run: as §1

[18] = HAV#006, ATCC 25922, CaMHB, 24 h incubation
[19] = HAV#001, ATCC 29213, CaMHB, 24 h incubation
[20] = HAV#005, ATCC 29212, CaMHB, 24 h incubation

Row | Compound | MIC [2] | MIC [3, 18] | MIC [4] | MIC [5] | MIC [7] | MIC [8, 19] | MIC [9] | MIC [10] | MIC [3] | MIC [12] | MIC [13] | MIC [14] | MIC [11] | MIC [15] | MIC [8] | MIC [16] | MIC [17] | also measured
1 | C[C@@H]1/C=C\CCS[C@H]2O[C@H]([C@@H]1N[S@](=O)C(C)(C)C)[C@H](OC(=O)c1ccccc1)[C@H](OC(=O)c1ccccc1)[C@H]2OC(=O)c1ccccc1 |  |  |  |  |  |  |  |  |  |  |  |  |  |  |  |  |  | ring closure, isolated yield ([1]; from C=CCCS[C@H]1O[C@H]([C@H](N[S@](=O)C(C)(C)C)[C@H](C)C=C)[C@H](OC(=O)c2ccccc2)[C@H](OC(=O)c2ccccc2)[C@H]1OC(=O)c1ccccc1, 10-membered ring, 0.2 mM, 0.33 h): 19%
2 | C[C@H]1/C=C/CCS[C@H]2O[C@H]([C@@H]1N[S@](=O)C(C)(C)C)[C@H](OC(=O)c1ccccc1)[C@H](OC(=O)c1ccccc1)[C@H]2OC(=O)c1ccccc1 |  |  |  |  |  |  |  |  |  |  |  |  |  |  |  |  |  | ring closure, isolated yield ([1]; from C=CCCS[C@H]1O[C@H]([C@H](N[S@](=O)C(C)(C)C)[C@@H](C)C=C)[C@H](OC(=O)c2ccccc2)[C@H](OC(=O)c2ccccc2)[C@H]1OC(=O)c1ccccc1, 10-membered ring, 0.2 mM, 0.33 h): 6%
3 | CC(=O)O[C@@H]1[C@H](OC(C)=O)[C@@H](OC(C)=O)[C@@H]2O[C@@H]1[C@H](N[S@](=O)C(C)(C)C)C(C)/C=C/CCCS2 (mixture of isomers) |  |  |  |  |  |  |  |  |  |  |  |  |  |  |  |  |  | ring closure, isolated yield ([1]; from C=CCCCS[C@H]1O[C@H]([C@H](N[S@](=O)C(C)(C)C)[C@H](C)C=C)[C@H](OC(C)=O)[C@H](OC(C)=O)[C@H]1OC(C)=O, 11-membered ring, 1.9 mM, 0.25 h): 85%
4 | CC(C)C[C@@H]1CCO[C@@H]2[C@H](CN[C@@H]2C(=O)N[C@H]2[C@H]3OC(SC/C=C/CC2(C)C)[C@H](O)C(O)C3O)C1 (single isomer, unassigned) [FSA1504066A, formate salt] | 8 µg/mL | 32 µg/mL | 1 µg/mL | 2 µg/mL | 32 µg/mL | ≤ 0.06 µg/mL | 4 µg/mL | > 64 µg/mL |  |  |  |  |  |  |  |  |  | MIC [6]: 1 µg/mL
5 | CC(C)C[C@@H]1CCO[C@@H]2[C@H](CN[C@@H]2C(=O)N[C@H]2C3OC(SC/C=C\CC2(C)C)C(O)C(O)C3O)C1 (single isomer, unassigned) [FSA1504066B, formate salt] | 64 µg/mL | 64 µg/mL | 32 µg/mL | 64 µg/mL | 64 µg/mL | 0.5 µg/mL | 32 µg/mL | > 64 µg/mL |  |  |  |  |  |  |  |  |  | MIC [6]: 4 µg/mL
6 | CC(C)C[C@@H]1CCO[C@@H]2[C@H](CN[C@@H]2C(=O)N[C@@H]2CC(C)(C)/C=C/CS[C@H]3O[C@H]2[C@H](O)[C@H](O)[C@H]3O)C1 [FSA1503085, (4S,5aS,8S,8aR)-4-isobutyl-N-((1R,8R,9R,10R,11S,12R,E)-10,11,12-trihydroxy-6,6-dimethyl-13-oxa-2-thiabicyclo[7.3.1]tridec-4-en-8-yl) octahydro-2H-oxepino[2,3-c]pyrrole-8-carboxamide formate salt] | 64 µg/mL | 64 µg/mL | 4 µg/mL | 8 µg/mL | > 64 µg/mL | 0.25 µg/mL | 32 µg/mL | 8 µg/mL |  |  |  |  |  |  |  |  |  | MIC [11, 20]: 0.25 µg/mL
7 | CC(C)C[C@@H]1CCO[C@@H]2[C@H](CN[C@@H]2C(=O)N[C@H]2[C@H]3O[C@H](SCCCCC2(C)C)[C@H](O)[C@@H](O)[C@H]3O)C1 [FSA1504068, (4S,5aS,8S,8aR)-4-isobutyl-N-((1R,8R,9R,10R,11S,12R)-10,11,12-trihydroxy-7,7-dimethyl-13-oxa-2-thiabicyclo[7.3.1]tridecan-8-yl) octahydro-2H-oxepino[2,3-c]pyrrole-8-carboxamide formate salt] | > 64 µg/mL | 64 µg/mL | 32 µg/mL | 64 µg/mL | > 64 µg/mL | 0.5 µg/mL | > 64 µg/mL | > 64 µg/mL |  |  |  |  |  |  |  |  |  | MIC [11, 20]: 2 µg/mL
8 | CC(C)C[C@@H]1CCO[C@@H]2[C@H](CN[C@@H]2C(=O)N[C@@H]2C/C=C\C[C@H](CN)S[C@H]3O[C@H]2[C@H](O)[C@H](O)[C@H]3O)C1 [FSA1608082, (4S,5aS,8S,8aR)—N-((1R,3R,8R,9R,10R,11S,12R,Z)-3-(aminomethyl)-10,11,12-trihydroxy-13-oxa-2-thiabicyclo[7.3.1]tridec-5-en-8-yl)-4-isobutyloctahydro-2H-oxepino[2,3-c]pyrrole-8-carboxamide hydrochloride salt] |  |  |  |  |  |  |  |  | 32 µg/mL | 64 µg/mL | 1 µg/mL | 2 µg/mL | 2 µg/mL | > 64 µg/mL | 1 µg/mL | 16 µg/mL | 16 µg/mL | 
9 | CC(C)C[C@@H]1CCO[C@@H]2[C@H](CN[C@@H]2C(=O)N[C@@H]2C/C=C\C[C@@H](CN)S[C@H]3O[C@H]2[C@H](O)[C@H](O)[C@H]3O)C1 [FSA1608083, (4S,5aS,8S,8aR)—N-((1R,3S,8R,9R,10R,11S,12R,Z)-3-(aminomethyl)-10,11,12-trihydroxy-13-oxa-2-thiabicyclo[7.3.1]tridec-5-en-8-yl)-4-isobutyloctahydro-2H-oxepino[2,3-c]pyrrole-8-carboxamide hydrochloride salt] |  |  |  |  |  |  |  |  | 16 µg/mL | 64 µg/mL | 1 µg/mL | 2 µg/mL | 1 µg/mL | > 64 µg/mL | 1 µg/mL | 32 µg/mL | 16 µg/mL | 
10 | CC(C)C[C@@H]1CCO[C@@H]2[C@H](CN[C@@H]2C(=O)N[C@@H]2C/C=C\C[C@@H](CNC(=O)c3ccc(F)cc3)S[C@H]3O[C@H]2[C@H](O)[C@H](O)[C@H]3O)C1 [FSA1608088, (4S,5aS,8S,8aR)—N-((1R,3S,8R,9R,10R,11S,12R,Z)-3-((4-fluorobenzamido)methyl)-10,11,12-trihydroxy-13-oxa-2-thiabicyclo[7.3.1]tridec-5-en-8-yl)-4-isobutyloctahydro-2H-oxepino[2,3-c]pyrrole-8-carboxamide formate salt] |  |  |  |  |  |  |  |  | 8 µg/mL | 16 µg/mL | 0.5 µg/mL | 2 µg/mL | 1 µg/mL | 32 µg/mL | 1 µg/mL | 8 µg/mL | 8 µg/mL | 
11 | CC(C)C[C@@H]1CCO[C@@H]2[C@H](CN[C@@H]2C(=O)N[C@@H]2C/C=C\C[C@H](CNC(=O)c3ccc(F)cc3)S[C@H]3O[C@H]2[C@H](O)[C@H](O)[C@H]3O)C1 [FSA1608089, (4S,5aS,8S,8aR)—N-((1R,3R,8R,9R,10R,11S,12R,Z)-3-((4-fluorobenzamido)methyl)-10,11,12-trihydroxy-13-oxa-2-thiabicyclo[7.3.1]tridec-5-en-8-yl)-4-isobutyloctahydro-2H-oxepino[2,3-c]pyrrole-8-carboxamide formate salt] |  |  |  |  |  |  |  |  | 16 µg/mL | 64 µg/mL | 1 µg/mL | 2 µg/mL | 1 µg/mL | > 64 µg/mL | 2 µg/mL | 8 µg/mL | 8 µg/mL | 
12 | CC(C)C[C@@H]1CCO[C@@H]2[C@H](CN[C@@H]2C(=O)N[C@H]2[C@H]3O[C@H](S[C@H](CF)C/C=C\[C@H]2C)[C@H](O)[C@@H](O)[C@H]3O)C1 [FSA1609034, (4S,5aS,8S,8aR)—N-((1R,3S,7R,8R,9R,10R,11S,12R,Z)-3-(fluoromethyl)-10,11,12-trihydroxy-7-methyl-13-oxa-2-thiabicyclo[7.3.1]tridec-5-en-8-yl)-4-isobutyloctahydro-2H-oxepino[2,3-c]pyrrole-8-carboxamide formate salt] |  |  |  |  |  |  |  |  | 1 µg/mL | 2 µg/mL | 0.25 µg/mL | ≤ 0.06 µg/mL | ≤ 0.06 µg/mL | 2 µg/mL | ≤ 0.06 µg/mL | 0.25 µg/mL | 0.25 µg/mL | 
